Assays:
[1] = system: very dry, irritated and problematic skin; experiment: Tending effect of care product on skin; format: in vivo; settings: 0.5% (wt. percent) ectoine in evening primrose oil containing product
[2] = 0.1% (wt. percent) added to evening primrose oil preparation; room temperature, 25° C.; first occurrence of rancid smell
Method: The stability of the preparation was assessed based on the first occurrence of a rancid smell of the evening primrose oil.

Molecule | tending effect compared with evening primrose oil containing tending product of identical composition [1] | improved evening primrose oil storage stability compared to a check preparation without diglycerol phosphates [2]
CC1=NCC[C@@H](C(=O)O)N1 [ectoine] | noticeably better tending effect | –
diglycerol phosphate | – | five

From patent US20080014153A1, “Topical Preparation For Application To The Skin Containing Natural Oil Of The Evening Primrose (Oenothera Biennis) (=Oleum Oenotherae) And Osmolytes Originating From Extremophilic Microorganisms” (priority 2004, published 2008)
